Test results from US12070457B2, “Substituted pyridines, pyridazines, pyrimidines, and 1,2,3-triazines as bruton's tyrosine kinase inhibitors” (HUTCHISON MEDIPHARMA LIMITED, priority 2020, dated 2024).

Tests used:
BTK recombinant protein = BTK recombinant protein (Homo sapiens (Human), UniProt Q06187); experiment: Determination of biochemical BTK (Z'-LYTE kinase assay)
Source text: Example 2 Determination of Biochemical BTK
(§1) 1. Reagents and Materials
• BTK recombinant protein: Invitrogen, Cat #PV3363; • Z′-LYTE® kinase test kit-tyrosine 1 peptide: Invitrogen, Cat #PV3190; • 384-well low-flange black flat-bottomed polystyrene NBS microplate, no lid, no sterilization: Corning, Cat #3575; • 96-well polystyrene conical-bottomed MicroWell™ plate, sealed with a lid: Thermo Scientific™ Nunc™, Cat #277143; • Envision multi-mode plate reader: PerkinElmer; • Mixmate® shaker: Eppendorf; • TS-2102 shaking incubator: TENSUC; 2. Methods
Z′-LYTE® biochemical assay employs a fluorescence resonance energy transfer (FRET)-based, coupled-enzyme format and is based on the differential sensitivity of phosphorylated and non-phosphorylated peptides to proteolytic cleavage. Both ends of the short peptide substrate are labeled with two fluorescent groups to form a FRET paired combination. In the primary reaction (the Kinase Reaction), the kinase transfers the γ-phosphate of ATP to a single […] residue on the short peptide substrate. In the secondary reaction (the development reaction), the non-phosphorylated short peptides were recognized and cleaved by a site-specific protease (the development reagent). Phosphorylated short peptides can resist such cleavage. Cleavage of short peptides can disrupt the donor (such as coumarin) and receptor fluorophores (fluorescein) on the short peptides, while the phosphorylated short peptides can maintain FRET. The calculation method of the ratio is as follows, and the ratio of the respective emission signals generated by the donor fluorophores emitted (after excitation at 400 nm) to the receptors is calculated. Emission signal ratio=emitted light by coumarin (445 nm)/emitted light by fluorescein (520 nm). If the FRET short peptide is phosphorylated (such as no kinase inhibitor), the emitted light ratio will remain in a lower level. If the FRET short peptide is non-phosphorylated (such as kinase inhibitor), the emitted light ratio will be in a higher level. In this way, the inhibitory effects of different compound inhibitors on BTK kinase activity would be distinguished.
The experiment were carried out according to the instructions of the Z′-LYTE® kinase test kit-tyrosine 1 peptide. Reagent preparation: 1.33× kinase buffer: 5× kinase buffer was diluted with water to 1.33× kinase buffer; an enzyme solution: the kinase was dissolved in 1.33× kinase buffer with the final working concentration being 3.32 nM; a short peptide solution: a short peptide stock solution (1 mM dissolved in DMSO) was dissolved in 1.33× kinase buffer with the final working concentration being 2 μM; Z′-LYTE Tyr01 phosphorylated short peptide solution, 0.6 μl of stock solution (1 mM dissolved in DMSO) was dissolved in 149.4 μl of 1.33× kinase buffer; an ATP solution: an ATP stock solution (10 mM aqueous solution) was dissolved in 1.33× kinase buffer with the final working concentration being 32 μM; a color-developing solution: color-developing solution B was dissolved in color-developing buffer with the final working concentration being 1× color-developing solution; 4× compound preparation: the compound was diluted in 3-fold gradient concentration to finally obtain 4% DMSO aqueous solution containing different concentrations of the compound, with the final working concentration being 3000, 1000, 333.33, 111.11, 37.04, 12.35, 4.12, 1.37 nM, 8 concentration points in total.
Specific steps of the experiment: In the experiment, there were three control groups, each with 8 replicate wells, which were C1 100% inhibition group (no ATP), C2 0% inhibition group (with ATP), and C3 100% phosphorylation group, respectively. 2.5 μl of serially diluted compound was added to each well of a 384-well plate, with double replicate wells, and 4% DMSO solution was added to wells C1, C2, and C3. […]

[1] = target: phosphorylated BTK in Ramos cells (Homo sapiens (Human), UniProt Q06187); experiment: Determination of phosphorylated BTK in Ramos cells (BTK phospho-Y223 HTRF); assay type: cell-based
Protocol: Determination of Phosphorylated BTK in Ramos Cells
as §1
• Ramos cells: Ramos cells were purchased from American Standard Biological Collection Center ATCC Cell Bank, PRMI 1640 medium containing L-glutamine, 1.5 g/L of sodium bicarbonate, 2.383 g/L of HEPES solution, 0.11 g/L of sodium pyruvate and 4.5 g/L of glucose was used, added 10% fetal bovine serum FBS, and placed in a 5% C02, 37° C. cell incubator for normal culture; • PRMI 1640 medium: GIBCO, Cat #A10491-01; • Fetal bovine serum (FBS): GIBCO, Cat #100100-147; • Hank's balanced salt solution (HBSS): GIBCO, Cat #14025-092; • Immunoglobulin M (IgM): Jackson Immuno, Cat #109-006-129; • 3% hydrogen peroxide (3% H2O2): Sigma, Cat #88597-100 ML-F; • Phosphorylated BTK HTRF detection kit (BTK phospho-Y223 HTRF kit): Cisbio, Cat #63ADK017PEH; • Microwell plate reader: Envision, Perkin Elmer; • 384-well plate CulturPlate™384: Perkin Elmer, Cat #6007680 • 96-well plate: Corning, Cat #3799. 2. Methods
Ramos cells were starved in PRMI 1640 medium with 1% FBS for 2 hours. The starved Ramos cells were diluted with Hank's balanced salt solution to 5.0×10^6 cells/ml, seeded in a 96-well plate with 20 μL/well (1.0×10^5 cells/well), and cultured in a 5% CO2, 37° C. cell incubator. […]
The 384 well plate incubated overnight in the constant temperature incubator was taken out to detect the luminescence signal using the Envision microwell plate reader at the […]. The reading value at 665 nm/615 nm of each well multiplied by 104 was used as the signal value of each well.
The average signal value of the wells supplemented with the mixed solution of human immunoglobulin M (final concentration was 10 μg/mL) and hydrogen peroxide (final concentration was 3.3 mM) without the test compound was regarded as the high value, and the average signal value of the wells without immunoglobulin M stimulation and without the test compound was regarded as the low value. According to the signal value in each well, the inhibition ratio (%) of each concentration of compounds was calculated, and the 205 model in XL-Fit 5.3 software (ID Business Solutions Limited) was used to obtain an IC50 value. […]

[2] = system: B cell activation in mice whole blood (BTK target); experiment: In vivo inhibitory effect on BTK target (anti-IgD antibody-induced B cell activation in mice whole blood); design: species or system mouse
Protocol: Objects: B cells in mice whole blood were induced and activated by the anti-IgD antibody, and the inhibitory effect of the compound of the present invention on B cell activation in vivo was studied, so as to determine the inhibitory effect of the compound of the present invention on the BTK target in vivo.
Methods: C57BL/6 mice (female, 18-20 g, purchased from Shanghai Lingchang Biotechnology Co., Ltd.) were grouped according to Table 2.
The animals of each group were administered, then were placed in CO2 for anesthesia at designated time points, blood samples were taken from rats via retro-orbital bleeding, and heparin was used for anticoagulation; 90 μL of whole blood was taken from mice of each group, and added to a 96 well culture plate, and anti-mouse IgD antibody (BIO-RAD, Cat #MCA4693) was added to each well to a final concentration of 0.01 μg/μL (respectively for the each drug-treated group and anti-IgD antibody-inducted vehicle group); in addition, 90 μL of whole blood of mice in the vehicle group was taken and added to the 96-well culture plate, and PBS (phosphate buffer, GIBCO, Cat #C20012500BT) was added to each well to a final concentration of 0.01 μg/μL (namely, the vehicle control group); Each group was mixed well and incubated in a 37° C./5% CO2 incubator for 4 hours. In addition, the blood of mice in the drug-treated group was centrifuged to separate plasma for blood concentration analysis.
B cell activation ratio=percentage of CD69^+CD19^+ double positive B cells/percentage of CD19^+ single positive B cells
All data are represented by mean±standard error. For the comparison between each drug-treated group and the anti-IgD antibody-induced vehicle group, p value was calculated by Graphpad Prism using one-way ANOVA analysis of variance and Dunnett's test, and for the comparison between each drug-treated group, p value was calculated by using unpaired t test.

Sequence of phosphorylated BTK in Ramos cells (Q06187 whole entry): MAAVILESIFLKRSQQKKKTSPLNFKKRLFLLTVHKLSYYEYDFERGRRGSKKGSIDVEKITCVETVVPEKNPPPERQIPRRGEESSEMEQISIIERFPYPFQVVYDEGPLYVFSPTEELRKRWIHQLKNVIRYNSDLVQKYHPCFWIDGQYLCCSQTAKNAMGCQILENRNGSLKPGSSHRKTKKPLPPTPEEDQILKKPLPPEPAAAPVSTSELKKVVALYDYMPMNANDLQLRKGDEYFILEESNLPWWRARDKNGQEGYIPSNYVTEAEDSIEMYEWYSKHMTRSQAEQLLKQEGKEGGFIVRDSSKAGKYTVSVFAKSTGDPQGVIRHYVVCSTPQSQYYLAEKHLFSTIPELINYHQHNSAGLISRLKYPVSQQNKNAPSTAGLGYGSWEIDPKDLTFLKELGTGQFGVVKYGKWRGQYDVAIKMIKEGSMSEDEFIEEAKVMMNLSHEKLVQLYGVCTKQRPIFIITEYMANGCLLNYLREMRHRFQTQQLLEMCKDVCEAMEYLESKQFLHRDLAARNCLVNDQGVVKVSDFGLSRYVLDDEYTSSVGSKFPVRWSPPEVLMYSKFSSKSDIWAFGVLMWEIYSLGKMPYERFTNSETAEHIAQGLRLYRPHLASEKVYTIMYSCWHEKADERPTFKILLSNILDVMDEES
Sequence of BTK recombinant protein (Q06187 whole entry): as above

Molecule | IC50 (BTK recombinant protein) | IC50 [1] | B cell activation ratio (the proportion of activated B cells to total B cells) ([2]; 5 mg/kg oral single, 16 h) | Inhibition ratio (%) ([2]; 5 mg/kg oral single, 16 h) | inhibition ratio on B cell activation ([2]; 5 mg/kg, after 16 hours of administration, anti-IgD antibody-induced, mice whole blood)
2-(3′-(hydroxymethyl)-5-((5-(2-methoxyethyl)-4-methyl-4,5,6,7-tetrahydropyrazolo[1,5-α]pyrazin-2-yl)amido)-1-methyl-6-oxo-1,6-dihydro-[3,4′-bispyridin]-2′-yl)-7,7-dimethyl-7,8-dihydro-2H-cyclopenta[4,5]pyrrolo[1,2-d][1,2,4]triazin-1(6H)-one optically pure enantiomer [Compound 120] | 8 nM | 5 nM |  |  | 
CC1c2cc(Nc3cc(-c4ccnc(-n5ccn6c7c(cc6c5=O)CCC7)c4CO)cn(C)c3=O)nn2CCN1C1COC1 (racemic) [Compound 144] | 18 nM | 38 nM |  |  | 
COCCN1CCn2nc(Nc3cc(-c4ccnc(-n5ccn6c7c(cc6c5=O)CCC7)c4CO)cn(C)c3=O)cc2C1C (racemic) [Compound 145] | 33 nM | 16 nM |  |  | 
Cn1cc(-c2ccnc(-n3ccn4c5c(cc4c3=O)CC(C)(C)C5)c2CO)cc(Nc2ccc(N3CCN4CCOCC4C3)cn2)c1=O (racemic) [Compound 232] | 12 nM | 8 nM |  |  | 
Cn1cc(-c2ccnc(-n3ccn4c5c(c(F)c4c3=O)CCCC5)c2CO)cc(Nc2cc3n(n2)CCOC3)c1=O [compound 176] |  |  | 13.9 | 48% | 48%
